Data on 28 molecules can be found in patent US6984649B1, “Pyridine derivatives” (Bayer Aktiengesellschaft, priority 2000, dated 2006).

pIC50: −log10 of the molar value. Where a name gives a salt, the structure may show the parent alone.

The first test concerns A549 human lung epithelium cell line. Briefly: RANTES production in response to TNF-α from A549 cells. The note with it: A549 cells, 100 ng/ml TNF-α, read-out: Cellular activity grade (A549) (Cellular IC50). Type of test: cell-based. As for the experimental part: [The Measurement of RANTES Production in Response to TNF-α from A549 Cells]
(1) Preparation of A549 Cells
• The A549 human lung epithelium cell line (ATCC […]) was maintained in Dulbecco's modified Eagle's medium (D-MEM, Nikken Biomedical Institute) supplemented with 10% FCS (Gibco), 100 U/ml penicillin, 100 μg/ml streptomycin, and 2 mM glutamine (culture medium). Forty thousand (4×10^4) cells (80 μl/well) were seeded in each well of 96 well flat-bottom tissue culture plate (Falcon #3072). The plate was allowed to stand for 2 hrs, thus the cells were adhered to the bottom of each well. To the each well was added 10 μl vehicle (1% DMSO), serial dilutions of test compounds in 1% DMSO, or 5 nM Dexamethasone in 1% DMSO as a reference. The mixture (90 μl/well) was incubated for 1 hr at 37° C. After 1 hr, 1 μg/ml TNF-α (10 μl) in culture medium was added to the mixture to obtain 100 μl of reaction mixture. The reaction mixture was cultured for 24 hrs to stimulate the cells with 100 ng/ml TNF-α. Cells with vehicle without TNF-α stimulation were also prepared. (2) Measurement of RANTES Production • Then the concentration of RANTES released from the cells in the supernatants of each well was determined using a quantitative sandwich enzyme immunoassay technique. First, 2 μg/ml mouse anti-huRANTES mAb (R&D Systems, #mAb678) in PBS buffer (pH 7.4, 100 μl) was put in each well of 96-well NUNC fluoro plate (Nalge Nunc, New York USA) (Final 200 ng/well) and the plate was allowed to stand for overnight at 4° C. to be coated by the antibody. Each well of the plate was then washed with 350 μl wash buffer (0.05% Tween-20, 0.85% NaCl, and 25 mM Tris/HCl pH7.4) for three times. Blocking buffer containing 1% BSA (Sigma 99% pure, 100 g), 5% sucrose (Nacalai tesque, 99% pure, 500 g), and 0.02% azide (Nacalai tesque, 100%, 500 g) were added (200 μl) to each well and then the plate was allowed to stand for 4 hours to stabilize the coated antibody. Next, 50 μl supernatants of cell culture prepared in (1) above were put in each well of the 96-well NUNC fluoro plate with coated antibody. Recombinant Human RANTES (Pepro Tech, Inc. #300-06) was used as the standard for the determination of RANTES production (linear range between 1 and 10 ng/ml). Eu-labelled mouse anti-huRANES mAb (60 ng/ml: R&D Systems, #mAb278) in PBS supplemented by 1% BSA and 0.05% Tween 20 was added (50 μl) to each well. The reaction mixtures were incubated at room temperature for 4 hrs. After washing with wash buffer (0.05% Tween-20, 0.85% NaCl, and 25 mM Tris/HCl pH7.4, 350 μl/well) for 5 times with the use of a Sera Washer (Bio-Tech, #MW-96R), the enhancement solution (DELFIA, #1244-405, 100 μl/well) was added to each well. The plate was incubated for 10 minutes at room temperature with moderate shaking. Fluorescent intensity was measured using a DELFIA fluorimeter (Wallac). Excitation was performed at 340 nm and emission was measured at 615 nm. [The Measurement of TNF-α Production in Response to LPS from Peripheral Blood Mononuclear Cells (PBMC)] (1) Preparation of PBMC • Human PBMC were prepared by first obtaining blood from healthy donors and isolating the cells from the blood. The isolation was done by Ficoll gradient-centrifugation method using Ficoll Pacque (Pharmacia #17-1440-02). Within three hours from donation, the isolated PBMC was used. After three times washing with PBS, PBMC were resuspended with RPMI 1640 (Nikken BioMedical Institute) supplemented with 10% FCS (Gibco), 100 U/ml penicillin, 100 μg/ml streptomycin, and 2 mM glutamine (culture medium). The cells (1×10^5 in 150 μL/well) were seeded in each well of 96 well flat-bottom tissue culture plate (Falcon #3072). To the each well was added 20 μl vehicle (1% DMSO), serial dilutions of test compounds in 1% DMSO, or 250 nM Dexamethasone in 1% DMSO as a reference. The mixture (170 μl/well) was incubated for 1 hr at 37° C. After 1 hr, 20 ng/ml LPS (30 μl) in culture medium was added to the mixture to obtain 200 μl of reaction mixture. […]
As a reminder, the pIC50 is the negative decadic logarithm of the IC50, by convention in mol/L. As for `Nc1nc(-c2ccccc2O)cc2c1CNC2Cc1ccccc1` (stereo in doubt) [Example 20-3, 2-[(1S)-4-amino-1-benzyl-2,3-dihydro-1H-pyrrolo[3,4-c]pyridin-6-yl]phenol hydrochloride], the pIC50 is 5.00 to 6.00.

The same test, now with this note: Homo sapiens, A549, A549 cells, 100 ng/ml TNF-α, read-out: Cellular activity grade (A549) (Cellular IC50).
For the molecule `CC1(c2cc(-c3ccccc3O)nc(N)c2C#N)CCCNC1` (stereo not shown) [Example 1-3, 2-amino-6-(2-hydroxyphenyl)-4-(3-methylpiperidin-3-yl)-nicotinonitrile hydrochloride], the negative logarithm of the IC50 (pIC50) is 5.00 to 6.00.

As to `CNC1CCCC(c2cc(-c3ccccc3O)nc(N)c2C#N)C1` (stereo not shown) [Example 1-5, 2-amino-6-(2-hydroxyphenyl)-4-[3-methylamino]cyclohexyl]nicotinonitrile hydrochloride], the negative logarithm of the IC50 (pIC50) is 5.00 to 6.00.

Turning to `N#Cc1c(C2CCCNC2)cc(-c2ncccc2O)nc1N` (stereo not shown) [Example 1-6, 6-amino-3′-hydroxy-4-(3-piperidinyl)-2,2′-bipyridine-5-carbonitrile hydrochloride], the pIC50 was over 6.00.

For the molecule `N#Cc1c(C2CCCNC2)cc(-c2sccc2O)nc1N` (stereo not shown) [Example 1-7, 2-amino-6-(3-hydroxy-2-thienyl)-4-(3-piperidinyl)nicotinonitrile hydrobromide], the pIC50 was over 6.00.

For the molecule `N#Cc1c(C2CCCC(C(=O)O)C2)cc(-c2ccccc2O)nc1N` (stereo not shown) [Example 1-8, 3-[2-amino-3-cyano-6-(2-hydroxyphenyl)-4-pyridinyl]cyclohexanecarboxylic acid], the negative logarithm of the IC50 (pIC50) was under 5.00.

As to `N#Cc1c(C2=CCCNC2)cc(-c2ccccc2O)nc1N` [Example 1-9, 2′-amino-6′-(2-hydroxyphenyl)-1,2,5,6-tetrahydro-3,4′-bipyridine-3′-carbonitrile hydrochloride], the negative-log IC50 (pIC50) was over 6.00.

For the molecule `N#Cc1c(C2CCCNC2)cc(-c2c(N)cccc2O)nc1N` (stereo not shown) [Example 1-10, 2-amino-6-(2-amino-6-hydroxyphenyl)-4-(3-piperidinyl)nicotinonitrile hydrochloride], the pIC50 is under 5.00.

On to `N#Cc1c(C2CCCNC2)cc(-c2c(O)cccc2NCc2ccccc2)nc1N` (stereo not shown) [Example 1-11, 2-amino-6-[2-(benzylamino)-6-hydroxyphenyl]-4-(3-piperidinyl)nicotinonitrile hydrochloride], for which the pIC50 was under 5.00.

As to `CC(=O)Nc1cccc(O)c1-c1cc(C2CCCNC2)c(C#N)c(N)n1` (stereo not shown) [Example 1-12, N-{2-[6-amino-5-cyano-4-(3-piperidinyl)-2-pyridinyl]-3-hydroxyphenyl}acetamide hydrochloride], the negative logarithm of the IC50 (pIC50) was under 5.00.

`N#Cc1c(C2CCCNC2)cc(-c2c(O)cccc2O)nc1N` (stereo not shown) [Example 2-1, 2-amino-6-(2,6-dihydroxyphenyl)-4-(3-piperidinyl)nicotinonitrile hydrochloride]: the negative logarithm of the IC50 (pIC50) was over 6.00.

For `N#Cc1c(C2CCCNC2)cc(-c2c(O)cccc2OCc2ccccc2)nc1N` (stereo not shown) [Example 2-2, 2-amino-6-[2-(benzyloxy)-6-hydroxyphenyl]-4-(3-piperidinyl)nicotinonitrile hydrochloride], the pIC50 is over 6.00.

Regarding `N#Cc1c(C2CCNCC2)cc(-c2c(O)cccc2OCC2CC2)nc1N` [Example 2-3, hydrochloride], the pIC50 was over 6.00.

Consider `CN1CCCC(c2cc(-c3c(O)cccc3OCC3CC3)nc(N)c2C#N)C1` (stereo not shown) [Example 3-1, 2-amino-6-[2-(cyclopropylmethoxy)-6-hydroxyphenyl]-4-(1-methyl-3-piperidinyl)nicotinonitrile], for which the negative logarithm of the IC50 (pIC50) was over 6.00.

With `N#Cc1c(C2CCCN(Cc3ccccc3)C2)cc(-c2c(O)cccc2OCC2CC2)nc1N` (stereo not shown) [Example 3-2, 2-amino-4-(1-benzyl-3-piperidinyl)-6-[2-(cyclopropylmethoxy)-6-hydroxyphenyl]nicotinonitrile], the pIC50 was under 5.00.

`CCCNc1nc(-c2ccccc2O)cc(C2CCCNC2)c1C#N` (stereo not shown) [Example 4-2, 6-(2-hydroxyphenyl)-4-(3-piperidinyl)-2-(propylamino)nicotinonitrile hydrochloride]: the pIC50 is under 5.00.

Regarding `CNc1nc(-c2ccccc2O)cc(C2CCCNC2)c1C#N` (stereo not shown) [Example 4-3, 6-(2-hydroxyphenyl)-2-(methylamino)-4-(3-piperidinyl)nicotinonitrile hydrochloride], the negative-log IC50 (pIC50) was under 5.00.

With `N#Cc1c(C2CCCNC2)cc(-c2ccccc2O)nc1Nc1ccccc1` (stereo not shown) [Example 4-4, hydrochloride], the negative logarithm of the IC50 (pIC50) was 5.00 to 6.00.

As to `Nc1n[nH]c2nc(-c3ccccc3O)cc(C3CCCNC3)c12` (stereo not shown) [Example 5-1, 2-[3-amino-4-(3-piperidinyl)-1H-pyrazolo[3,4-b]pyridin-6-yl]phenol hydrochloride], the pIC50 was 5.00 to 6.00.

As for `CC(=O)Nc1n[nH]c2nc(-c3ccccc3O)cc(C3CCCNC3)c12` (stereo not shown) [Example 5-2, N-[6-(2-hydroxyphenyl)-4-(3-piperidinyl)-1H-pyrazolo[3,4-b]pyridin-3-yl]acetamide hydrochloride], the negative-log IC50 (pIC50) is under 5.00.

With `CC(=O)Nc1nc(-c2ccccc2O)cc(C2CCCNC2)c1C#N` (stereo not shown) [Example 6-1, N-[3-cyano-6-(2-hydroxyphenyl)-4-(3-piperidinyl)-2-pyridinyl]acetamide hydrochloride], the pIC50 is 5.00 to 6.00.

In the case of `CC(=O)Nc1nc(-c2c(O)cccc2OCC2CC2)cc(C2CCNCC2)c1C#N` [Example 6-2, N-[3-cyano-6-[2-(cyclopropylmethoxy)-6-hydroxyphenyl]-4-(4-piperidinyl)-2-pyridinyl]acetamide hydrochloride], the pIC50 was over 6.00.

Take `NC(=O)c1c(C2CCCNC2)cc(-c2ccccc2O)nc1N` (stereo not shown) [Example 7-1, 2-amino-6-(2-hydroxyphenyl)-4-(3-piperidinyl)nicotinamide hydrochloride]: the negative-log IC50 (pIC50) is 5.00 to 6.00.

Regarding `O=c1[nH]c(=O)c2c(C3CCCNC3)cc(-c3ccccc3O)nc2[nH]1` (stereo not shown) [Example 7-2, 7-(2-hydroxyphenyl)-5-(3-piperidinyl)pyrido[2,3-d]pyrimidine-2,4(1H,3H)-dione hydrochloride], the pIC50 is under 5.00.

Take `O=c1[nH]c2nc(-c3ccccc3O)cc(C3CCCNC3)c2c(=O)n1-c1ccccc1` (stereo not shown) [Example 7-3, 7-(2-hydroxyphenyl)-3-phenyl-5-(3-piperidinyl)pyrido[2,3-d]pyrimidine-2,4(1H,3H)-dione hydrochloride]: the negative-log IC50 (pIC50) was under 5.00.

`Nc1nc(-c2ccccc2O)cc2c1C(=O)N1CCCC2C1` (stereo not shown) [Example 8-1, 6-amino-4-(2-hydroxy-phenyl)-5,9-diaza-tricyclo[7.3.1.0^2,7]trideca-2(7),3,5-trien-8-one]: the pIC50 is 5.00 to 6.00.

On to `CNC(=O)c1c(C2CCCNC2)cc(-c2ccccc2O)nc1N` (stereo not shown) [Example 8-2, 2-amino-6-(2-hydroxyphenyl)-N-methyl-4-(3-piperidinyl)nicotinamide hydrochloride], for which the negative logarithm of the IC50 (pIC50) is 5.00 to 6.00.

As to `CNC(=O)c1c(C2CCCNC2)cc(-c2c(O)cccc2OCC2CC2)nc1N` (stereo not shown) [Example 8-3, 2-amino-6-[2-(cyclopropylmethoxy)-6-hydroxyphenyl]-N-methyl-4-(3-piperidinyl)nicotinamide hydrochloride], the pIC50 was over 6.00.
